Measurements published in ChEMBL document CHEMBL1201862, “PubChem BioAssay data set” (2004).
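Following 48 hours of exposure in 96-well plates, responses at five concentrations were used to interpolate endpoints linearly. GI50 = concentration required for 50% inhibition of growth.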 Activity calls are given as the source filed them. Rule as the data show it: active = GI50 up to about 1.1 µM and inactive = higher. Where a SMILES comes first, the peptide text is derived from it. [ ]: non-standard residue; d: D form. Ac5c = NC1(C(=O)O)CCCC1

What was measured:
Test in all cases: inhibition of tumour cell growth, NCI panel, 48 h
MDA-MB-231 = tested on: MDA-MB-231
SN12C = tested on: SN12C
NCI-H226 = tested on: NCI-H226
HOP-92 = tested on: HOP-92
ACHN = tested on: ACHN
U-251 = tested on: U-251
DU-145 = tested on: DU-145
SR = tested on: SR
Hs-578T = tested on: Hs-578T
PC-3 = tested on: PC-3
CCRF-CEM = tested on: CCRF-CEM
SK-MEL-2 = tested on: SK-MEL-2
KM12 = tested on: KM12
COLO 205 = tested on: COLO 205
HCT-116 = tested on: HCT-116
OVCAR-8 = tested on: OVCAR-8
SK-MEL-28 = tested on: SK-MEL-28
SF-295 = tested on: SF-295
OVCAR-4 = tested on: OVCAR-4
BT-549 = tested on: BT-549
IGROV-1 = tested on: IGROV-1
786-0 = tested on: 786-0
NCI/ADR-RES = tested on: NCI/ADR-RES
MOLT-4 = tested on: MOLT-4
T47D = tested on: T47D
HOP-62 = tested on: HOP-62
OVCAR-3 = tested on: OVCAR-3
NCI-H23 = tested on: NCI-H23
HCT-15 = tested on: HCT-15
HCC 2998 = tested on: HCC 2998
MDA-MB-435 = tested on: MDA-MB-435
UACC-257 = tested on: UACC-257
UACC-62 = tested on: UACC-62
UO-31 = tested on: UO-31
SF-539 = tested on: SF-539
SF-268 = tested on: SF-268
MCF7 = tested on: MCF7
A498 = tested on: A498
M14 = tested on: M14
K562 = tested on: K562
SW-620 = tested on: SW-620
A549 = tested on: A549
HT-29 = tested on: HT-29
Malme-3M = tested on: Malme-3M
MDA-N = tested on: MDA-N
NCI-H460 = tested on: NCI-H460
LOX IMVI = tested on: LOX IMVI
CAKI-1 = tested on: CAKI-1
SNB-19 = tested on: SNB-19
HL-60 = tested on: HL-60
SK-OV-3 = tested on: SK-OV-3
RPMI-8226 = tested on: RPMI-8226
TK-10 = tested on: TK-10
SNB-75 = tested on: SNB-75
RXF 393 = tested on: RXF 393
EKVX = tested on: EKVX
OVCAR-5 = tested on: OVCAR-5
NCI-H522 = tested on: NCI-H522
SK-MEL-5 = tested on: SK-MEL-5

Measured: GI50

O=C1C[C@@H](Sc2ccccc2)C2(OCCO2)[C@H]2ON3CCC[C@@H]3[C@@H]12
active: CCRF-CEM 0.782 µM | MOLT-4 1.04 µM
inactive: MDA-MB-231 3.06 µM | SN12C 2.33 µM | NCI-H226 7.67 µM | HOP-92 3.89 µM | ACHN 3.4 µM | U-251 3.33 µM | DU-145 2.55 µM | SR 1.3 µM | Hs-578T 2.77 µM | PC-3 4.55 µM | SK-MEL-2 3.72 µM | KM12 4.4 µM | COLO 205 2.48 µM | HCT-116 1.55 µM | OVCAR-8 2.03 µM | SK-MEL-28 7.83 µM | SF-295 11.4 µM | OVCAR-4 5 µM | BT-549 6.53 µM | IGROV-1 2.24 µM | 786-0 2.07 µM | NCI/ADR-RES 3.31 µM | T47D 2.83 µM | HOP-62 3.16 µM | OVCAR-3 1.68 µM | NCI-H23 4.61 µM | HCC 2998 8 µM | MDA-MB-435 2.58 µM | UACC-257 13.4 µM | UACC-62 10.9 µM | UO-31 1.94 µM | SF-539 2.87 µM | SF-268 2.95 µM | MCF7 3.33 µM | A498 10.9 µM | M14 2.12 µM | K562 2.56 µM | SW-620 2.14 µM | A549 10.3 µM | HT-29 1.17 µM | Malme-3M 1.82 µM | MDA-N 2.7 µM | NCI-H460 4.36 µM | LOX IMVI 3.1 µM | CAKI-1 4.42 µM | SNB-19 14.8 µM | HL-60 1.38 µM | SK-OV-3 13.2 µM | RPMI-8226 2.85 µM | TK-10 6.71 µM
2.44 µM: HCT-15

NC1(C(=O)NC2(C(=O)O)CCCC2)CCCC1 (H-[Ac5c]-[Ac5c]-OH)
> 100 µM: HCT-15
inactive: MDA-MB-231 > 100 µM | SN12C > 100 µM | NCI-H226 > 100 µM | HOP-92 > 100 µM | ACHN > 100 µM | U-251 > 100 µM | DU-145 > 100 µM | SR > 100 µM | Hs-578T > 100 µM | PC-3 > 100 µM | CCRF-CEM > 100 µM | SK-MEL-2 > 100 µM | KM12 > 100 µM | COLO 205 > 100 µM | HCT-116 > 100 µM | OVCAR-8 > 100 µM | SK-MEL-28 > 100 µM | SF-295 > 100 µM | SNB-75 > 100 µM | OVCAR-4 > 100 µM | BT-549 > 100 µM | IGROV-1 > 100 µM | 786-0 > 100 µM | NCI/ADR-RES > 100 µM | MOLT-4 > 100 µM | T47D > 100 µM | HOP-62 > 100 µM | RXF 393 > 100 µM | OVCAR-3 > 100 µM | NCI-H23 > 100 µM | MDA-MB-435 > 100 µM | EKVX > 100 µM | UACC-257 > 100 µM | UACC-62 > 100 µM | UO-31 > 100 µM | OVCAR-5 > 100 µM | SF-539 > 100 µM | SF-268 > 100 µM | MCF7 > 100 µM | A498 > 100 µM | M14 > 100 µM | K562 > 100 µM | SW-620 > 100 µM | A549 > 100 µM | HT-29 > 100 µM | Malme-3M > 100 µM | NCI-H522 > 100 µM | MDA-N > 100 µM | NCI-H460 > 100 µM | LOX IMVI > 100 µM | CAKI-1 > 100 µM | SNB-19 > 100 µM | SK-MEL-5 > 100 µM | HL-60 > 100 µM | SK-OV-3 > 100 µM | RPMI-8226 > 100 µM | TK-10 > 100 µM
